Test results reported in patent publication US20040241706A1, “Highly specific modulators of GTPases for target validation” (IRM, LLC, priority 2002, published 2004).
Positions count from the first letter of the chain named.

Key:
GTPase mutant N116C = molecular target: T1, GTPase mutant N116C (Homo sapiens, UniProt P01112, N116C); experiment: Ras inhibitor / guanine nucleotide exchange assay with 3H-GDP, mutant N116C; format: binding; details: FIG. 17
T1 construct: made in house; host or cells: E. coli BL21-Gold, pGEX vector
From the text: (§1) One exemplary assay which can be used are Ras “inhibition” or “guanine nucleotide exchange” assays, as schematically illustrated in FIG. 8, and described in detail in the Examples hereinbelow. The assay detects inhibition of wild-type and mutant Ras proteins by using ^3H-labelled GDP and cold (non-tritiated) synthetic Ras inhibitors.
FIG. 15 provides a bar chart depicting the ability of various guanosine-based modulators to displace radiolabeled GDP from the GTPase mutant N116C.
FIGS. 16 and 17 graphically illustrates the inhibitory effect of the C-6 or N-7 substituted GMP-scaffold modulators on the double mutant N116G-T114C and the mutant N116C, respectively. […] The inhibitory effect was in the range of approximately 50-80%. […]
(§2) For example, purified mutant Ras (19A-116A) or wild type H-Ras protein (0.5 to 20 μg) was incubated in 40 μL of GTP exchange buffer (50 mM Tris-HCl pH 7.5, 50 mM NaCl, 5 mM EDTA, 1 mM DTT, 1 mg/mL BSA) containing either DMSO, GTP (100 μM) or a modulator (100 μM) for 30 min at 25° C. […] Filters were dried and the bound radioactivity was measured by scintillation counting (Beckman, #LS6500).
(§3) Cold GDP was used as a positive control. […] All of the measurements are in comparison to a background radioactivity count, such that the level of inhibition for a given compound was determined by the number of counts in comparison to the control. […]

single mutant N116G Ras = molecular target: T2, single mutant N116G Ras (Homo sapiens, UniProt P01112, N116G); experiment: Ras inhibitor / guanine nucleotide exchange assay with 3H-GDP, single mutant N116G; format: binding; details: FIG. 12 panel B
T2 construct: made in house; host or cells: E. coli BL21-Gold, pGEX vector
From the text: as §1
FIG. 12 provides the inhibitor assay results for compounds 43 through 45 (e.g, respectively) as compared to the positive control GTP, for the wild-type Ras protein (panel A) and the single mutant N116G (SEQ ID No. 7). […] Thus, substitution of the N116 residue with a glycine appears to be a favorable mutation leading to expansion of the GTP binding pocket. […]
as §2, §3

wild-type Rap1B enzyme = molecular target: T3, wild-type Rap1B enzyme (Homo sapiens, UniProt P61224); experiment: Selective binding, wild-type Rap1B; details: FIG. 33B
T3 construct: GST (N); made in house; host or cells: E. coli BL21-Gold, pGEX-4T (described for the mutant; inferred for the wild type)
T3 sequence (P61224 1-184): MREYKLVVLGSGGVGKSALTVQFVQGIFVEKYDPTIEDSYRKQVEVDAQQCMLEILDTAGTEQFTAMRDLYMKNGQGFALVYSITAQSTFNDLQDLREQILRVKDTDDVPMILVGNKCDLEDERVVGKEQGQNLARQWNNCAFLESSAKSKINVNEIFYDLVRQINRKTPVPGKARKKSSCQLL
From the text: (§4) To confirm the general applicability of the methods and compositions of the present invention in the context of GTPases other than H-Ras, alanine substitutions at amino acids corresponding to positions 19 and 116 of Ras were introduced into the Rap1B GTPase. As shown in the alignment of Table 1, the identical amino acid residues, i.e., leucine at position 19, and asparagine at position 116, are present in Rap1B.
(§5) The mutant Rap1B protein construct was made as described above with respect to the Ras mutant proteins. All mutant proteins were made in the pGEX-4T bacterial expression system using the Quickchange protocol […] according to the manufacturer's instructions. Mutant Rap1B cDNAs were transformed individually in BL21-Gold competent cells (Stratagene) according to the manufacturer's instructions. An overnight culture of BL21-Gold cells containing one of the GST-Rap1B plasmids described above was diluted 1:50 in Superbroth medium (Q-Biogene) supplemented with 50 mg/L carbenicillin. After it had grown to an OD=0.6, synthesis of the GST-Rap1B protein was induced by the addition of IPTG (50 mM) and by further incubation at 30° C. for 12 h. After centrifugation at 3,500 g for 15 min at 4° C., the cell pellet was frozen at −80° C. for 1 h. […] Protein concentration was determined by a Bradford assay and the protein purity was assessed by gel electrophoresis.

[1] = molecular target: T4, mutant enzyme (19A-116A) Ras binding to the Ras binding domain (RBD) of the Raf kinase (Homo sapiens, UniProt P01112, L19A/N116A); experiment: Effector binding assay: pull-down with Ras binding domain (RBD) of Raf kinase, western blot; format: biochemical; details: FIG. 35
T4 construct: GST (N); made in house; host or cells: E. coli BL21-Gold, pGEX vector (Ras)
Procedure: The ability of the mutant enzyme (19A-116A) to bind to a known effector of H-Ras was confirmed. Using the Ras binding domain (RBD) of the Raf kinase, the ability of the mutant enzyme to undergo a conformational change upon GTP binding, and, thus, to bind the effector was determined. In brief, purified mutant or wild-type proteins (150 ng) were incubated in 1 mL of loading buffer (100 mM Tris-HCl pH 7.5, 2 mM EDTA, 1 mM DTT, 1 mg/mL BSA) in the presence of 10 mM of GDP, GTP, 7 d or both GTP and 7 d for 15 min at 25° C. for loading the protein with the appropriate nucleotides. Following loading, MgCl2 (20 mM) was added along with GST-RBD (1.2 mg), comprising Raf kinase amino acids 53-131, bound to glutathione sepharose beads. The resulting suspensions were incubated with rotation for 30 min at 4° C. The beads were then washed three times with 1 mL of washing buffer (50 mM Tris-HCl pH 7.5, 50 mM NaCl, 20 mM MgCl2, 1 mM DTT) to remove unbound H-Ras proteins. The beads were boiled in SDS loading buffer, and the samples were separated by electrophoresis. Following transfer, the PVDF membrane was probed with anti-H-Ras and the amount of H-Ras bound to the RBD glutathione sepharose beads was visualized using anti-rabbit HRP in conjunction with WestPico (Pierce).

mutant Rap1B enzyme = molecular target: T5, mutant Rap1B enzyme (Homo sapiens, UniProt P61224, L19A/N116A); experiment: Selective binding to mutant Rap1B (alanine at positions 19 and 116); details: FIG. 33B
T5 construct: made in house; host or cells: E. coli BL21-Gold, pGEX-4T
T5 sequence (P61224 1-184 L19A/N116A): T3 sequence (P61224 1-184) with L19A, N116A
From the text: as §4, §5

mutant Ras (19A-116A) = molecular target: T6, mutant Ras (19A-116A) (Homo sapiens, UniProt P01112, L19A/N116A); experiment: Ras inhibitor / guanine nucleotide exchange assay with 3H-GDP, double mutant L19A-N116A; format: binding; details: for IC50: mutant (19A-116A) Ras, FIG. 34, read-out: IC50 (concentration at which 50% inhibition of GTP binding is observed); for displacement of radioactive GDP from the mutant GTPase: remaining radioactivity count
T6 construct: made in house; host or cells: E. coli BL21-Gold, pGEX vector
From the text: as §1
FIG. 11 graphically illustrates the inhibition of double mutant L19A-N116A (SEQ ID No. 11) by various C-6 substituted GTP moieties (compounds 39 through 42, presented as a-d in the figure), as compared to the negative control (nothing added to displace the radiolabeled GDP), positive control (cold GDP), and background count (no GTPase enzyme added).
The GTPase modulators of the present invention were screened against wild-type and/or mutant GTPases for their effectiveness as GTPase inhibitors. Ras inhibitor assays were performed to test the activity of the synthesized modulators against various wild-type and/or mutant GTPases of interest, and/or to compare the different modulators based upon the relative observed level of inhibition.
For example, purified mutant Ras (19A-116A) or wild type H-Ras protein (0.5 to 20 μg) was incubated in 40 μL of GTP exchange buffer (50 mM Tris-HCl pH 7.5, 50 mM NaCl, 5 mM EDTA, 1 mM DTT, 1 mg/mL BSA) containing either DMSO, GTP (100 μM) or a modulator (100 μM) for 30 min at 25° C. This pre-incubation was followed by the additions of 2 μCi ^3H-GDP (NEN, #NET966) and, 10 min later, 25 mM MgCl2. After another 5 min of incubation, the reaction mixture was applied to a nitrocellulose filter (Millipore, #HAWP02500) pre-wetted with wash buffer (50 mM Tris-HCl pH 7.5, 10 mM MgCl2), the filter was then washed using 10 mL of wash buffer. Filters were dried and the bound radioactivity was measured by scintillation counting (Beckman, #LS6500).
Cold GDP was used as a positive control. Since the positive control naturally replaces the radioactive GDP in both the wild-type and mutant GTPase proteins, significant drops in radiolabeling are observed. Water was used as a negative control. All of the measurements are in comparison to a background radioactivity count, such that the level of inhibition for a given compound was determined by the number of counts in comparison to the control. Thus, a high radioactivity count is indicative of a high level of binding between the mutant GTPase and the radioactive GDP.

wild type H-Ras = molecular target: T7, wild type H-Ras (Homo sapiens, UniProt P01112); experiment: Ras inhibitor / guanine nucleotide exchange assay with 3H-GDP, wild type; format: binding; details: at a concentration of 100 μM
T7 construct: made in house; host or cells: E. coli BL21-Gold, pGEX vector
From the text: as §1
The GTPase modulators of the present invention were screened against wild-type and/or mutant GTPases for their effectiveness as GTPase inhibitors. […]
as §2
Cold GDP was used as a positive control. […] All of the measurements are in comparison to a background radioactivity count, such that the level of inhibition for a given compound was determined by the number of counts in comparison to the control. Thus, a high radioactivity count is indicative of a high level of binding between the mutant GTPase and the radioactive GDP.

| inhibition of the mutant GTPase (decrease in radiolabel remaining bound) (single mutant N116G Ras) | effect on the wild-type Rap1B enzyme (wild-type Rap1B enzyme) | effector (Raf RBD) binding of the mutant enzyme [1] | binding to the mutant Rap1B enzyme (mutant Rap1B enzyme) | IC50 (mutant Ras (19A-116A)) | displacement of radioactive GDP from the mutant GTPase (mutant Ras (19A-116A)) | Compound | further results |
| --- | --- | --- | --- | --- | --- | --- | --- |
|  |  |  |  |  |  | 6-S-mercaptoguanosine-5′-phosphate [Compound 82] | inhibitory effect on the N116C mutant (GTPase mutant N116C): 50-80% |
| significantly inhibit |  |  |  |  |  | C=CCOc1nc(N)nc2c1ncn2[C@@H]1O[C@H](COP(=O)(O)OP(=O)(O)OP(=O)(O)O)[C@@H](O)[C@H]1O [Compound 43, 6-O-allyl guanosine-5′-triphosphate] |  |
| significantly inhibit |  |  |  |  |  | Nc1nc(=S)c2ncn([C@@H]3O[C@H](COP(=O)(O)OP(=O)(O)OP(=O)(O)O)[C@@H](O)[C@H]3O)c2[nH]1 [Compound 45, 6-S-mercaptoguanosine-5′-triphosphate] |  |
|  | negligably affecting | prevents effector binding | bind tightly | 0.3 µM | displaced the radioactive GDP | Nc1nc2c(c(CCc3ccccc3)cn2[C@@H]2O[C@H](COP(=O)(O)OP(=O)(O)O)[C@@H](O)[C@H]2O)c(=O)[nH]1 [Compound 60, 7-deaza-7-(2″-phenyl)ethyl guanosine-5′-diphosphate] | potency relative to GDP at displacing GTP from the mutant GTPase protein (mutant Ras (19A-116A); ratio of IC50 values): 5 times; inhibition of wild-type H-Ras (wild type H-Ras): does not inhibit |
|  |  |  |  | ~1.5 µM |  | Nc1nc2c(ncn2[C@@H]2O[C@H](COP(=O)(O)OP(=O)(O)O)[C@@H](O)[C@H]2O)c(=O)[nH]1 [GDP, reference compound] |  |
|  | negligably affecting | prompts effector binding | bind tightly |  | displaced the radioactive GDP | (2-phenyl)ethyl-GTP [Compound 52] |  |
